According to patent US20230227466A1, “SUBSTITUTED THIENOPYRIMIDINES THAT INTERACT WITH THE RAS SUPERFAMILY FOR THE TREATMENT OF CANCERS, INFLAMMATORY DISEASES, RASOPATHIES, AND FIBROTIC DISEASE” (SHY Therapeutics, LLC, priority 2020, published 2023):
pIC50: −log10 of the molar value. Where two headings read alike, the source gives them in different places.

Columns and labels:
KRas G12D mutant = molecular target: T1, KRas G12D mutant (Homo sapiens, UniProt P01116, G12D); test: Ras GTP binding domain inhibition assay (labeled-GTP competition, cell-free)
T1 construct: made in house
In short: (§1)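 His-tagged protein immobilized on Ni-coated wells overnight at 4 °C. Compounds (20 μM single point or serial dilution for IC50) incubated 3 h at RT, ± Sos (residues 556-1049, 10-30 μg/mL) during the final hour. Cy3- or Cy5-GTP (100 nM) then added for 45 min; bound label read by fluorescence after washing.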

KRas G12C mutant = molecular target: T2, KRas G12C mutant (Homo sapiens, UniProt P01116, G12C); test: as above
T2 construct: made in house
In short: as §1

KRas Q61H mutant = molecular target: T3, KRas Q61H mutant (Homo sapiens, UniProt P01116, Q61H); test: as above
T3 construct: made in house
In short: as §1

[1] = system: MIA-PaCa-2 pancreatic cancer cell line (KRAS G12C); test: Cell proliferation assay (CellTiter 96 Aqueous One); type: cell-based; conditions: Homo sapiens; for IC50: MIA PaCa-2, MIA PaCa-2; for inhibition at 10 µM: MIA PaCa-2, read-out: % inh cell proliferation (10 μM) in MIA PaCa-2
In short: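 After overnight attachment, compounds are added (10 μM final or serial dilutions) and left 2–4 days, with viability then measured by MTS.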

Rho-A = Rho-A (Homo sapiens, UniProt P61586); test: Ras GTP binding domain inhibition assay (labeled-GTP competition, cell-free); set-up: made in house
In short: as §1

KRas wild type = KRas wild type (Homo sapiens, UniProt P01116); test: as above; set-up: made in house
In short: as §1

Rac-1 = Rac-1 (Homo sapiens, UniProt P63000); test: as above; set-up: made in house
In short: as §1

[2] = with SOS, read-out: KRas G12D mutant + SOS: % inh.
[3] = without SOS, read-out: KRas G12D mutant: % inh.
[4] = with SOS, read-out: KRas G12C mutant + SOS: % inh.
[5] = without SOS, read-out: KRas G12C mutant: % inh.
[6] = with SOS, read-out: KRas Q61H mutant + SOS: % inh.
[7] = without SOS, read-out: KRas Q61H mutant: % inh.
[8] = without SOS, read-out: Rho-A: % inh.
[9] = with SOS, read-out: KRas wild type + SOS: % inh.
[10] = without SOS, read-out: KRas wild type: % inh.
[11] = without SOS, read-out: Rac-1: % inh.
[12] = with SOS, read-out: Rho-A + SOS: % inh.
[13] = with SOS, read-out: Rac-1 + SOS: % inh.

| Structure (SMILES) | inhibition at 20 µM (KRas G12D mutant; [2]) [%] | inhibition at 20 µM (KRas G12D mutant; [3]) [%] | inhibition at 20 µM (KRas G12C mutant; [4]) [%] | inhibition at 20 µM (KRas G12C mutant; [5]) [%] | inhibition at 20 µM (KRas Q61H mutant; [6]) [%] | inhibition at 20 µM (KRas Q61H mutant; [7]) [%] | IC50 [1] [µM] | inhibition at 20 µM (Rho-A; [8]) [%] | inhibition at 20 µM (KRas wild type; [9]) [%] | inhibition at 20 µM (KRas wild type; [10]) [%] | inhibition at 20 µM (Rac-1; [11]) [%] | inhibition at 20 µM (Rho-A; [12]) [%] | inhibition at 20 µM (Rac-1; [13]) [%] | pIC50 (KRas Q61H mutant; with SOS) | inhibition at 10 µM [1] [%] |
| --- | --- | --- | --- | --- | --- | --- | --- | --- | --- | --- | --- | --- | --- | --- | --- |
| CO[C@H]1CC[C@@H](Nc2nc(C(N)=O)nc3sccc23)C1 (racemic) [Compound 11, Rac-4-(((1R,3S)-3-methoxycyclopentyl)amino)thieno[2,3-d]pyrimidine-2-carboxamide] | 0 | 1 to 25 | 1 to 25 | 1 to 25 | 0 | 0 | > 10 | 1 to 25 | 1 to 25 | 0 | 0 | 1 to 25 | 0 | < 5.00 | 1 to 25 |
| CO[C@H]1CC[C@@H](Nc2nc(C(N)=O)nc3sc(-c4ccn(C(C)C)n4)cc23)C1 (racemic) [Compound 17, Rac-6-(1-isopropyl-1H-pyrazol-3-yl)-4-(((1R,3S)-3-methoxycyclopentyl)amino)thieno[2,3-d]pyrimidine-2-carboxamide] | 0 | 0 | 0 | 0 | 0 | 1 to 25 | > 10 | 26 to 50 | 1 to 25 | 1 to 25 | 0 | 0 | 1 to 25 | < 5.00 | 1 to 25 |
| Cc1c(-c2ccn(C(C)C)n2)sc2nc(-c3ccccn3)nc(N3CCC(COC(C)C)C3)c12 (stereo not drawn) [Compound 72, 4-(3-(Isopropoxymethyl)pyrrolidin-1-yl)-6-(1-isopropyl-1H-pyrazol-3-yl)-5-methyl-2-(pyridin-2-yl)thieno[2,3-d]pyrimidine] | 0 | 51 to 75 | 1 to 25 | 0 | 0 | 0 | 5 to 10 | 1 to 25 | 0 | 1 to 25 | 0 |  |  |  | 51 to 75 |
| O=C(Nc1ccccn1)c1nc(O)c2scc(-c3ccccn3)c2n1 [Compound 24, 4-Hydroxy-N,7-di(pyridin-2-yl)thieno[3,2-d]pyrimidine-2-carboxamide] | 0 | 1 to 25 | 1 to 25 | 1 to 25 | 0 | 1 to 25 | > 10 | 1 to 25 | 1 to 25 | 1 to 25 | 0 | 1 to 25 | 1 to 25 | < 5.00 | 1 to 25 |

Further lines, with some results ahead:

| inhibition at 20 µM (KRas G12D mutant; [2]) [%] | inhibition at 20 µM (KRas G12D mutant; [3]) [%] | inhibition at 20 µM (KRas G12C mutant; [4]) [%] | inhibition at 20 µM (KRas G12C mutant; [5]) [%] | inhibition at 20 µM (KRas Q61H mutant; [6]) [%] | inhibition at 20 µM (KRas Q61H mutant; [7]) [%] | IC50 [1] [µM] | inhibition at 20 µM (Rho-A; [8]) [%] | inhibition at 20 µM (KRas wild type; [9]) [%] | inhibition at 20 µM (KRas wild type; [10]) [%] | inhibition at 20 µM (Rac-1; [11]) [%] | inhibition at 20 µM (Rho-A; [12]) [%] | inhibition at 20 µM (Rac-1; [13]) [%] | pIC50 (KRas Q61H mutant; with SOS) | Structure (SMILES) | inhibition at 10 µM [1] [%] |
| --- | --- | --- | --- | --- | --- | --- | --- | --- | --- | --- | --- | --- | --- | --- | --- |
| 26 to 50 | 1 to 25 | 26 to 50 | 26 to 50 | 26 to 50 | 26 to 50 | 5 to 10 | 76 to 100 | 51 to 75 | 26 to 50 | 1 to 25 |  |  |  | Cc1c(-c2ccn(C(C)C)n2)sc2nc(-c3nccn3C)nc(NCCc3ncc[nH]3)c12 [Compound 53, N-(2-(1H-Imidazol-2-yl)ethyl)-6-(1-isopropyl-1H-pyrazol-3-yl)-5-methyl-2-(1-methyl-1H-imidazol-2-yl)thieno[2,3-d]pyrimidin-4-amine] | 76 to 100 |
| 26 to 50 | 1 to 25 | 26 to 50 | 26 to 50 | 26 to 50 | 26 to 50 | 5 to 10 | 51 to 75 | 26 to 50 | 26 to 50 | 0 |  |  |  | Cc1c(-c2ccn(C(C)C)n2)sc2nc(-c3nccn3C)nc(NCc3ncc[nH]3)c12 [Compound 57, N-((1H-Imidazol-2-yl)methyl)-6-(1-isopropyl-1H-pyrazol-3-yl)-5-methyl-2-(1-methyl-1H-imidazol-2-yl)thieno[2,3-d]pyrimidin-4-amine] | 51 to 75 |
| 76 to 100 | 76 to 100 | 76 to 100 | 76 to 100 | 76 to 100 | 76 to 100 | 1 to 4.99 | 76 to 100 | 76 to 100 | 76 to 100 | 76 to 100 | 76 to 100 | 76 to 100 |  | COC1CCN(c2nc(-c3nccn3C)nc3sc(-c4ccn(C(C)C)n4)c(C)c23)C1 (racemic) [Compound 34, rac-6-(1-Isopropyl-1H-pyrazol-3-yl)-4-(3-methoxypyrrolidin-1-yl)-5-methyl-2-(1-methyl-1H-imidazol-2-yl)thieno[2,3-d]pyrimidine] | 76 to 100 |
| 76 to 100 | 51 to 75 | 51 to 75 | 51 to 75 | 51 to 75 | 51 to 75 | 1 to 4.99 | 76 to 100 | 76 to 100 | 76 to 100 | 76 to 100 |  |  |  | Oc1nc(-c2nccn2CCOCC(F)(F)F)nc2c(-c3ccccn3)csc12 [Compound 81, 7-(Pyridin-2-yl)-2-(1-(2-(2,2,2-trifluoroethoxy)ethyl)-1H-imidazol-2-yl)thieno[3,2-d]pyrimidin-4-ol] | 76 to 100 |
| 26 to 50 | 26 to 50 | 26 to 50 | 51 to 75 | 26 to 50 | 26 to 50 | 5 to 10 | 51 to 75 | 26 to 50 | 26 to 50 | 26 to 50 | 51 to 75 | 26 to 50 |  | COC1CCCN(c2nc(-c3ccccn3)nc3sc(-c4ccn(C(C)C)n4)c(C)c23)C1 (racemic) [Compound 70, Rac-6-(1-Isopropyl-1H-pyrazol-3-yl)-4-(3-methoxypiperidin-1-yl)-5-methyl-2-(pyridin-2-yl)thieno[2,3-d]pyrimidine] | 76 to 100 |
| 26 to 50 | 26 to 50 | 76 to 100 | 51 to 75 | 76 to 100 | 51 to 75 | < 1 | 76 to 100 | 76 to 100 | 76 to 100 | 51 to 75 | 76 to 100 | 51 to 75 |  | COC1CCCN(c2nc(-c3nccn3C)nc3sc(-c4ccn(C(C)C)n4)c(C)c23)C1 (racemic) [Compound 40, rac-6-(1-Isopropyl-1H-pyrazol-3-yl)-4-(3-methoxypiperidin-1-yl)-5-methyl-2-(1-methyl-1H-imidazol-2-yl)thieno[2,3-d]pyrimidine] | 76 to 100 |
